Data set [1] can be described thus: Human liver microsome assay. The class given is in vitro ADME. The conditions noted are these: for half-life at 1 μM / CLint scaled at 1 μM: pH 7.41, human liver microsomes 0.5 mg/mL, compound 1 μM, NADPH 2 mM; for half-life at 1 μM: read-out: Half-life (t1/2, min); for CLint scaled at 1 μM: read-out: Intrinsic clearance (Clint, mL/min/kg). The procedure: Preparation of magnesium-potassium buffer solution: a 100 mM potassium buffer and 5 mM MgCl2 were preheated together to obtain a magnesium-potassium buffer at a pH of 7.41. Preparation of 0.5 mM working solution: a 10 mM compound stock solution was added to 95 μL of acetonitrile. Preparation of 1.5 μM working solution containing microsomes (0.75 mg/mL): 1.5 μL of the 0.5 mM working solution and 18.75 μL of 20 mg/mL human liver microsome solution were added to 479.75 μL of the magnesium-potassium buffer. Preparation of NADPH stock solution (6 mM, 5 mg/mL): NADPH was dissolved in the magnesium-potassium buffer. 30 μL of 1.5 μM working solution containing 0.75 mg/mL human liver microsomes were added to each of the wells of a 96-well plate, and the plate was pre-incubated at 37° C. for 5 min. For a sample at 0 min, 150 μL of acetonitrile solution containing an internal standard was added, and then 15 μL of NADPH stock solution (6 mM) was added to initiate the reaction. For samples at other time points, 15 μL of NADPH stock solution (6 mM) was directly added to initiate the reaction. Final content of components: compound (1 μM), human liver microsomes (0.5 mg/mL), and NADPH (2 mM). 150 μL of cold stop buffer containing an internal standard was added at time points of 5 min, 15 min, 30 min, and 45 min to stop the sample reaction, the plate was centrifuged at 600 rpm for 10 min and then at 6000 rpm for 15 min, and the supernatant was taken for LC-MS/MS analysis.
A standard curve of the ln residual rate of the drug in the incubation system with respect to the incubation time was plotted by using Excel software, linear regression was performed to obtain a slope k, and the half-life T1/2 (min) and the intrinsic clearance CLint (mL/min/kg) value were calculated according to the following formula: […]

Data set [2] is described as follows: Oil solubility test in benzyl benzoate (HPLC). The data set is classed as physicochemical. The conditions noted are these: organic solvent or mixture, thermodynamic from solid, 25° C., shaken 2 h. As to the method:
The solubility test was performed by quantitative analysis using an external standard method of high-performance liquid chromatography.
Reference sample solution: 10 mg of reference sample was weighed, placed in a 20 mL volumetric flask, diluted to the scale with 80% acetonitrile, and shaken uniformly.
Test sample solution: an appropriate amount of sample was dissolved in benzyl benzoate to obtain a saturated solution. The mixture was placed in a shaker and shaken at 25° C. and 800 rpm for 2 h. The sample solution was filtered, and 100 μL of filtrate was added to a 10 mL volumetric flask, diluted to the scale with 80% acetonitrile, and shaken uniformly.

A short description of data set [3]: Pharmacokinetic experiment in rats, intramuscular injection. The data set is classed as in vivo. The conditions noted are these: SD male rats, 43.3 mmol/kg, benzyl benzoate vehicle, up to day 36. As to the method:
The pharmacokinetic experiment in rats was performed on compounds 2, 3, 5, 6, 7, and 8 (non-fasting SD male rats, administered intramuscularly, at a dose of 43.3 mmol/kg, n=3). The vehicle was benzyl benzoate, the injection site was the thigh muscle of the hind limb, and about 0.3 mL of blood samples were collected from the jugular vein of rats at blood collection time points of day 0.25, day 2, day 4, day 6, day 8, day 15, day 22, day 29, and day 36. The collected blood was stored under ice-cold conditions, plasma was rapidly isolated by centrifugation and the precipitant was added, and the concentration of compound 1 (active metabolite) was quantitatively determined by LCMS.

For data set [4], the target named is T1, human recombinant 5-HT1A receptor (Homo sapiens, UniProt P08908).
T1 construct: expressed in transfected cells; host or cells: HEK293
T1 sequence (P08908 1-422): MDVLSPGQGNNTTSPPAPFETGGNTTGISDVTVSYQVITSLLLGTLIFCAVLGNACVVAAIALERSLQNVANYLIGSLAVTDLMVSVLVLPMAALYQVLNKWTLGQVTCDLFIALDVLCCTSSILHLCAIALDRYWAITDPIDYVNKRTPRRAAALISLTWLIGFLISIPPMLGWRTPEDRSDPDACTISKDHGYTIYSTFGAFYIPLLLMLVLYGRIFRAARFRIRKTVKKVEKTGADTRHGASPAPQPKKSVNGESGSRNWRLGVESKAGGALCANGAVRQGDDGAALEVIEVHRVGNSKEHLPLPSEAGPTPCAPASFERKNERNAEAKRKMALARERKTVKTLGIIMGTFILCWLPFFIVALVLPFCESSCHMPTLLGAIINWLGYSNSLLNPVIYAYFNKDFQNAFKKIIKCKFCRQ
Kind of data set: Agonistic activity against the 5-HT1A receptor (LANCE cAMP, HEK293 cells). The data set is classed as cell-based. The settings on record: inhibition of cAMP production.

The target in data set [5] is T2, human recombinant 5-HT2A receptor (Homo sapiens, UniProt P28223).
T2 construct: expressed in transfected cells; host or cells: CHO (5-HT2A-CHO)
T2 sequence (P28223 whole entry): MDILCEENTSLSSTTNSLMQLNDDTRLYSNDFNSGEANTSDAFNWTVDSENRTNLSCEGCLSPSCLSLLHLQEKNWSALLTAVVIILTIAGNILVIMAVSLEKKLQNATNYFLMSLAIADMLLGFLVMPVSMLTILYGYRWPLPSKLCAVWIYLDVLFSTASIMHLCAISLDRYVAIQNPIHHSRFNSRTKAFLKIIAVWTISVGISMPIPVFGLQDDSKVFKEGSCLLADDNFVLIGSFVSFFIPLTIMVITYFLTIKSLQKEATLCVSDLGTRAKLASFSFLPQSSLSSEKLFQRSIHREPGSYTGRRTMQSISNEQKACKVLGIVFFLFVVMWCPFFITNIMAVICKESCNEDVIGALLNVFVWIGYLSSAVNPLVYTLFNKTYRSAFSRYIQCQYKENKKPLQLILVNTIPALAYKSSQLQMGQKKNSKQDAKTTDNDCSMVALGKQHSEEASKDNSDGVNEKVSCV
As to the kind of experiment: Antagonistic activity against the 5-HT2A receptor (IP-One-Gq, CHO cells). The class given is cell-based. The settings on record: serotonin stimulation. The procedure:
The antagonistic effect of the compounds on the 5-HT2A receptor in the CHO cells expressing the human recombinant 5-HT2A receptor was assayed by using the IP-One-Gq kit (Cisbio). […] Risperidone was used as a positive control.

The next data set deals with T3, human SERT (Homo sapiens, UniProt P31645).
T3 construct: expressed in transfected cells; host or cells: HEK-293 (HEK-hSERT)
T3 sequence (P31645 whole entry): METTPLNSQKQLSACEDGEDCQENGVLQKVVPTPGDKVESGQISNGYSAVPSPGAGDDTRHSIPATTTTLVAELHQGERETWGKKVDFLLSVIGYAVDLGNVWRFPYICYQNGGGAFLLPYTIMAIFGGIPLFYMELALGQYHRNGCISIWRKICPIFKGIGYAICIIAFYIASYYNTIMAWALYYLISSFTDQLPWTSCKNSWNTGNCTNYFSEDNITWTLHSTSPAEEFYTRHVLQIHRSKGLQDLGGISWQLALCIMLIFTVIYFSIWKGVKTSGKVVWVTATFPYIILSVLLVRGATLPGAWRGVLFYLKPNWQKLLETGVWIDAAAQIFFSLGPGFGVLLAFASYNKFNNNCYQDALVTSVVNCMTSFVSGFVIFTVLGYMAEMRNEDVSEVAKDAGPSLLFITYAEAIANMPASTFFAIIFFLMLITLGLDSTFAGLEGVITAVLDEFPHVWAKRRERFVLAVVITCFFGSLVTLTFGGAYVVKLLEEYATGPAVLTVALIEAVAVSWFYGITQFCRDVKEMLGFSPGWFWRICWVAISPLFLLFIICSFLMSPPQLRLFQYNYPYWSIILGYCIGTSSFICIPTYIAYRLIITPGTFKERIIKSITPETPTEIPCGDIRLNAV
Kind of data set: cell-based. The settings on record: HEK-hSERT cells; read-out: Inhibitory activity against 5-HT transporter (IC50). The procedure: The inhibitory effect of the compounds on the 5-HT transporter in the HEK-293 cells expressing human SERT was evaluated by using the neurotransmitter transporter uptake assay kit (Molecular Devices).

For the next data set, the target named is T4, hERG potassium channel (Homo sapiens, UniProt Q12809).
T4 construct: expressed in transfected cells
T4 sequence (Q12809 whole entry): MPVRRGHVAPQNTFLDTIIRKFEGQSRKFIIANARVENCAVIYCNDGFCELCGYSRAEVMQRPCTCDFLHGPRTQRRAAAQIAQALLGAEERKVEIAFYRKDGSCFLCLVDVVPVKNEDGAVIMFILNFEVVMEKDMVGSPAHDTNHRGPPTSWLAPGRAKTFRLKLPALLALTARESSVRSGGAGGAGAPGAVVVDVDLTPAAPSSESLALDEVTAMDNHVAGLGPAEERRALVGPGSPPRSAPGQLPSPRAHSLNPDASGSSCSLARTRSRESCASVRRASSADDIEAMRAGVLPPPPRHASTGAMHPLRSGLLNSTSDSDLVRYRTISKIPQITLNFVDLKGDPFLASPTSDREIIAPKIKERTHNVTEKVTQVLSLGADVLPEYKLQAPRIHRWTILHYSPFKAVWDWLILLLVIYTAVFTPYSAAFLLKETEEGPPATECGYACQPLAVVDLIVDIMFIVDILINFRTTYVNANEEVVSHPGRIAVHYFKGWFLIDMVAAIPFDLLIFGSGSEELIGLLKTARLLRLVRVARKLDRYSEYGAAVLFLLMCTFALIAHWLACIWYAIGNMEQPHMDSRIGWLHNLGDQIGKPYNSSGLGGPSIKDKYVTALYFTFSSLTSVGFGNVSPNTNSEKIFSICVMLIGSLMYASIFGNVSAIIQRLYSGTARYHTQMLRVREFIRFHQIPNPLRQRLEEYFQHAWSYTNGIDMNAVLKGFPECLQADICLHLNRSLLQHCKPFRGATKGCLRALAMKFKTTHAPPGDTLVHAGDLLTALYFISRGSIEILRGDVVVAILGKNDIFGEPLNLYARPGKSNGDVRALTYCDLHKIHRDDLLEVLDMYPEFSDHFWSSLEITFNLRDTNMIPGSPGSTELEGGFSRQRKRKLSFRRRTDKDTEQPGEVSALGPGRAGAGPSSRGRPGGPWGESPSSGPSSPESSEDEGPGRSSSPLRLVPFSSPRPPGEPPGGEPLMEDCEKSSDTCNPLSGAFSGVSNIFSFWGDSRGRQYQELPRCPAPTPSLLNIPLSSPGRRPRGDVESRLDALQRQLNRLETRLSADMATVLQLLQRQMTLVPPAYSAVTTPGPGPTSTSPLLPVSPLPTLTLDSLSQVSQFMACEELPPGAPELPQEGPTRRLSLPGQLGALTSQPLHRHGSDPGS
As to the kind of experiment: hERG potassium channel block, automatic patch clamp (QPatch, CHO cells). The data set is classed as cell-based. The settings on record: CHO cells stably expressing hERG, highest concentration 20 μM; read-out: hERG inhibition (IC50). As to the method: The hERG potassium channel block experiment was performed using the full-automatic patch-clamp technique (QPatch^HTX, Sophion, Stockholm, Sweden). The cell line is CHO cells stably expressing the hERG potassium channel. The compounds were tested at the highest test concentration of 20 μM in 3-fold dilution (n=3).

The next data set addresses human D3 receptor (Homo sapiens, UniProt P35462). Kind of data set: cell-based.
Data set [6] addresses human recombinant D2L receptor (Homo sapiens, UniProt P14416). As to the kind of experiment: Antagonistic activity against the D2L receptor (LANCE Ultra cAMP, CHO cells).
Procedure: The antagonistic effect of the compounds on the D2L receptor in the CHO cells expressing the human recombinant D2L receptor was assayed by using the LANCE® Ultra cAMP kit (PerkinElmer, USA). […] Amisulpride was used as a positive control.

≈ marks a conversion by molar mass, not a printed value. Some results are limits rather than exact numbers.

Chain of human recombinant D2L receptor (P14416 whole entry): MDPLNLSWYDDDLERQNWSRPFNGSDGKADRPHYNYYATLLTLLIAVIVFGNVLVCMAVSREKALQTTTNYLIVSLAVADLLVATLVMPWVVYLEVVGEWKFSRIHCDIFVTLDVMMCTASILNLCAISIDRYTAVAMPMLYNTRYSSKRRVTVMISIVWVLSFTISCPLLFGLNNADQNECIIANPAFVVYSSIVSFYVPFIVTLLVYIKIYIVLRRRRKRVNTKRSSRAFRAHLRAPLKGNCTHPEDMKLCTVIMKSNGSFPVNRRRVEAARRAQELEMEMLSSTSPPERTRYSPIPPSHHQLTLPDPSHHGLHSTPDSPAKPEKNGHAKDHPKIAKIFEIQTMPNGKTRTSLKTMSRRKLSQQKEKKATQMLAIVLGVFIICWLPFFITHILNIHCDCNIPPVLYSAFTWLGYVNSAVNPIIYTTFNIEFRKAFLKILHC
Chain of human D3 receptor (P35462 whole entry): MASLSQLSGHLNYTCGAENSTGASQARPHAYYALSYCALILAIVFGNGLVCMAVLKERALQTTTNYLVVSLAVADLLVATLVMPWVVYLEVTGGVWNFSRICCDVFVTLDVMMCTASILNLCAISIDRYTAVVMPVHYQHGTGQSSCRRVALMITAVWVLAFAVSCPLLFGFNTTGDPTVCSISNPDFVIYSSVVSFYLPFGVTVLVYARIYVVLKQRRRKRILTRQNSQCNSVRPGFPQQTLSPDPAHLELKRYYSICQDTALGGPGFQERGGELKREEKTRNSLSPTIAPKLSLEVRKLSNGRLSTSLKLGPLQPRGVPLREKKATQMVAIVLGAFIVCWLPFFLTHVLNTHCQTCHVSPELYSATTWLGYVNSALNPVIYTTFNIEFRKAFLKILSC

Take `CC(C)OC(=O)OCN1C(=O)CCc2ccc(CCN3CCN(c4cc(F)cc5sccc45)CC3)cc21` [Compound 2]: in data set [1], the half-life at 1 μM is 0.69 min and the CLint scaled at 1 μM was found to be 2530 mL/min/kg. For the same compound, the solubility at 2 h in [2] worked out at 75 mg/mL (≈ 143 mM).
The matching figures for `CCCCCCCCCCCC(=O)OCN1C(=O)CCc2ccc(CCN3CCN(c4cc(F)cc5sccc45)CC3)cc21` [Compound 3]: 367 min, 4.73 mL/min/kg and > 200 mg/mL.
In the case of `CCCCCCCCCC(=O)OCN1C(=O)CCc2ccc(CCN3CCN(c4cc(F)cc5sccc45)CC3)cc21` [Compound 7, (7-(2-(4-(6-fluorobenzo[b]thiophen-4-yl)piperazin-1-yl)ethyl)-2-oxo-3,4-dihydroquinolin-1(2H)-yl)methyl decanoate], in data set [1], the “Metabolic stability in human liver microsomes (in words)” value is reported as “good metabolic stability”, the half-life at 1 μM came out at 30 min and the CLint scaled at 1 μM was found to be 56.8 mL/min/kg. Further, in data set [2], the solubility at 2 h is > 200 mg/mL.
Turning to `CCCCC(=O)OCN1C(=O)CCc2ccc(CCN3CCN(c4cc(F)cc5sccc45)CC3)cc21` [Compound 6], in data set [1], the half-life at 1 μM was 1 min and the CLint scaled at 1 μM came out at 1720 mL/min/kg. Further, the solubility at 2 h in [2] was 166 mg/mL (≈ 317 mM).
Take `CCCCCCCCCCCCCCCC(=O)OCN1C(=O)CCc2ccc(CCN3CCN(c4cc(F)cc5sccc45)CC3)cc21` [Compound 8, (7-(2-(4-(6-fluorobenzo[b]thiophen-4-yl)piperazin-1-yl)ethyl)-2-oxo-3,4-dihydroquinolin-1(2H)-yl)methyl palmitate]: in data set [1], the “Metabolic stability in human liver microsomes (in words)” value was “good metabolic stability” and the half-life at 1 μM is > 120 min. For the same compound, in data set [2], the solubility at 2 h is > 200 mg/mL. Moreover, the “Fluctuation in the plasma concentration of the active metabolite (compound 1)” value in data set [3] is given as “minimal fluctuation”.
Regarding `O=C1CCc2ccc(CCN3CCN(c4cc(F)cc5sccc45)CC3)cc2N1CO` [Compound 1], the values for the 50% effective concentration (EC50) (in data set [4]; on human D3 receptor) were 0.7 nM and 7.1 nM, respectively. In addition, the concentration for half-maximal inhibition (IC50) in data set [5] stood at 32 nM; on human SERT it was 13 nM; at hERG potassium channel, 1810 nM; in data set [6] it was 3.5 nM.
For the compound `CC(=O)OCN1C(=O)CCc2ccc(CCN3CCN(c4cc(F)cc5sccc45)CC3)cc21` [Compound 5], in data set [1], the half-life at 1 μM is 0.87 min and the CLint scaled at 1 μM worked out at 2000 mL/min/kg. Also, in data set [2], the solubility at 2 h came out at 23.4 mg/mL (≈ 48.7 mM).
For `O=C1CCc2ccc(CCN3CCN(c4cc(F)cc5sccc45)CC3)cc2N1` [Compound 1-a, 7-(2-(4-(6-fluorophenothiophen-4-yl)piperazin-1-yl)ethyl)-3,4-dihydroquinolin-2(1H)-one, reference compound], the figures for the IC50 (in data set [5]; on hERG potassium channel; in data set [6]) were 33 nM, 920 nM and 4.4 nM, respectively. For the same compound, in data set [2], the solubility at 2 h is 22.4 mg/mL (≈ 54.6 mM).
